Experimental data published in US11542265B2, “Pyrazolopyrimidine compounds and uses thereof” (Incyte Corporation, priority 2016, dated 2023).

What follows are compounds tested against HPK1 (Homo sapiens, UniProt Q92918) (assay: HPK1 Kinase Binding Assay). Details: LanthaScreen tracer 222, Eu-Anti GST antibody, active HPK1, one hour incubation at 25° C.
Experimental: A stock solution of 1 mM test compound was prepared in DMSO. The compound plate was prepared by 3-fold and 11-point serial dilutions. 0.1 μL of the compound in DMSO was transferred from the compound plate to the white 384 well polystyrene plates. The assay buffer contained 50 mM HEPES, pH 7.5, 0.01% Tween-20, 5 mM MgCl2, 0.01% BSA, and 5 mM DTT. 5 μl of 4 nM active HPK1 (SignalChem M23-11G) prepared in the buffer was added to the plate. The enzyme concentration given was based on the given stock concentration reported by the vender. 5 μl of 18 nM tracer 222 (ThermoFisher PV6121) and 4 nM LanthaScreen Eu-Anti GST antibody (ThermoFisher PV5595) were added. After one hour incubation at 25° C., the plates were read on a PHERAstar FS plate reader (BMG Labtech). Ki values were determined.

Chain of HPK1 (Q92918 whole entry, looked up): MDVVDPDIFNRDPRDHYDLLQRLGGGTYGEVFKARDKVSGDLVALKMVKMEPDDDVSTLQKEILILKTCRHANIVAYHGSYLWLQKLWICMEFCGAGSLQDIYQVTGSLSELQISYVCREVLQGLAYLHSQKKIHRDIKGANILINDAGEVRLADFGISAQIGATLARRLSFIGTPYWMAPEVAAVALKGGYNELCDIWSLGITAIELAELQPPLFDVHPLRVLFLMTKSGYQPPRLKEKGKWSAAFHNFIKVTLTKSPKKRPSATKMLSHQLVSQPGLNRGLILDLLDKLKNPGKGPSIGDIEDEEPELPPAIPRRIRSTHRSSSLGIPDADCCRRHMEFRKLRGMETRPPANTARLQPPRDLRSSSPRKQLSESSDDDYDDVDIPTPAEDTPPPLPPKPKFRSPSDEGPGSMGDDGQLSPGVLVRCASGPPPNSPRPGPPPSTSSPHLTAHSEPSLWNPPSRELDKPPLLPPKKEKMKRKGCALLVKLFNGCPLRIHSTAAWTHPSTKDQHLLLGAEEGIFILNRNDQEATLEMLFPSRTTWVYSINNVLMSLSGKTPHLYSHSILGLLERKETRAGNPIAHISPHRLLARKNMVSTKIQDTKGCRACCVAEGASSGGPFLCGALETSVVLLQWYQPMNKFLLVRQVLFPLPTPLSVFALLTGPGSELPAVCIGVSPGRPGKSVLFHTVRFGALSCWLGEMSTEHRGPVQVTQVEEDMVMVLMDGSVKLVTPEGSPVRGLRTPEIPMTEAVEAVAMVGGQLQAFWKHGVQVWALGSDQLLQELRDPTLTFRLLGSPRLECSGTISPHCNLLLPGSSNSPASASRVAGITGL

Ki, ≤ 100 nM:
CNCc1cc(F)c(-c2ncc3[nH]nc(-c4ccc(NC5CCN(S(C)(=O)=O)CC5)cc4)c3n2)c(F)c1 [Example 72, 7V-(4-(5-(2,6-Difluoro-4-((methylamino)methyl)phenyl)-1H-pyrazolo[4,3-d]pyrimidin-3-yl)phenyl)-1-(methylsulfonyl)piperidin-4-amine]
CN1CCN(c2ncc(-c3n[nH]c4cnc(-c5c(F)cc(CC#N)cc5F)nc34)cn2)CC1 [Example 105, 2-(3,5-Difluoro-4-(3-(2-(4-methylpiperazin-1-yl)pyrimidin-5-yl)-1H-pyrazolo[4,3-d]pyrimidin-5-yl)phenyl)acetonitrile]
CNCc1cc(F)c(-c2ncc3[nH]nc(-c4ccc(N5CCCCC5)nc4)c3n2)c(C(F)(F)F)c1 [Example 76, 1-(3-Fluoro-4-(3-(6-(piperidin-1-yl)pyridin-3-yl)-1H-pyrazolo[4,3-d]pyrimidin-5-yl)-5-(trifluoromethyl)phenyl)-N-methylmethanamine]
